These results are taken from patent publication US20250302816A1, “DISRUPTION OF EPITHELIAL BARRIERS FOR MOLECULAR DELIVERY ENHANCEMENT OR EXTRACTION OF EXTRACELLULAR FLUIDS” (The University of Nottingham, priority 2022, published 2025).

Holding throughout (type): cell-based, human
Assay [1] has as its system Calu-3 cell layers. As to conditions: 3OC12-HSL 200 μM. The method, then:
(§1) FIG. 2: Macromolecular therapeutics transported across Calu-3 cell layers in the absence (dashed line) and presence (line) of 3OC12-HSL transported into the basolateral chamber over a period of five hours. Permeability experiments were initiated by applying 0.5 ml of the solutions (250 μg/ml Aflibercept/Bevacizumab/or Doxorubicin diluted in HBSS/HEPES) to the apical side of the cells (donor compartment of the Transwell) with or without 3OC12-HSL (200 μM). Drug permeability was determined by sampling the basolateral solution at regular time intervals. Data points are expressed as means±SEM, derived from three replicates in triplicate. p values of <0.05 were considered statistically significant. *, ** and *** denote p<0.05, p<0.01 and p<0.001, respectively.
(§2) Calu-3 cells obtained from American Type Culture Collection, USA were cultured using Dulbecco's Modified Eagle Medium (DMEM) supplemented with penicillin (100 U/mL), streptomycin (0.1 mg/mL), amphotericin (0.25 μg/mL), non-essential amino acids (NEM, 1%) and Fetal Bovine Serum (FBS, 10% v/v, Sigma-Aldrich, UK). The human-derived RPE cell line ARPE-19 was obtained from American Type Culture Collection. […]
(§3) Three polarised epithelial in-vitro tissue models, including lung epithelium (Calu-3), retinal pigment epithelium (ARPE-19) and intestinal epithelial (Caco-2) were used to study the efficiency of 200 μM 3OC12-HSL as a paracellular permeability enhancer for three different drugs: bevacizumab, aflibercept and doxorubicin (applied concentrations 250 μg/mL). The amount of drugs transported was determined via the conversion of fluorescence intensity to amount (μg or ng), using calibration curves constructed via serial standard dilutions. […]
(§4) Permeability experiments were initiated by applying 0.5 mL of the test solutions to the apical side of the cells (donor compartment of the Transwell®). […] Drug permeability was determined by sampling the basolateral solution at regular time intervals. […]

Another assay has as its system Caco-2 cell layers. Conditions: 3OC12-HSL 200 μM. As to the method: as §1, with “FIG. 3: Macromolecular therapeutics” for “FIG. 2: Macromolecular therapeutics”, “transported across Caco-2 cell layers” for “transported across Calu-3 cell layers”, “of the test solutions (250” for “of the solutions (250”
as §2, §3, §4

The test system of assay [2] is Calu-3 cell layers. Briefly: FD4 permeability and TEER of polarised Calu-3 cell layers.
For a further assay, the system named is MMP. Put plainly: Fluorogenic MMP activity assay. The method, then:
FIG. 5: High-throughput MMP assay (MMP Activity Assay Kit (Fluorometric-Red), Abcam #ab112147) showing the normalised accumulation slope of FRET-based signal (Ex540: Em590 nm) read at 5 minute intervals for one hour in adherent Calu-3 cells cultured in glass-bottomed 96-well plates using a SpectraMax i3x/Biomek FXPP high-throughput platform. Each experiment was conducted in triplicate (error bars). Signal accumulation over time in each well was linearly fitted and the gradient of each fit was scaled against the gradient of the relevant positive control wells, to which active MMP was added directly (mixed isoforms, […]), to obtain the normalised accumulation slope.
To investigate the involvement of MMP in the disruption of tight junctions observed in the presence of 200 μM 3OC12-HSL and C7 PQS, a fluorogenic MMP activity assay was performed, using the Amplite™ Universal Fluorimetric MMP Activity Assay Kit. This kit is designed to check the general activity of a MMP enzyme.
Following treatment with 3OC12-HSL and C7 PQS respectively, the conditioned media were collected every hour from apical chamber and MMP activity was determined by using Amplite™ Universal Fluorimetric MMP Activity Assay Kit Green Fluorescence according to the manufacturer's instructions.
A fluorogenic MMP activity assay was carried out in the same manner on further agents.

Another assay deals with Calu-3 cell layer. Briefly: Delivery of siRNA across Calu-3 cell layer (Transwell). As to conditions: 200 μM. As to the method:
FIG. 10: Delivery of siRNA (19 bases) across Calu-3 cell layer is enhanced in the presence of 30C12 HSL (200 μM) assessed as recovered fraction from the basolateral chamber of a Transwell.

Where [3] appears, read: doxorubicin 250 μg/ml, after 5 hours.

Regarding `CCCCCCCCCC(=O)CC(=O)N[C@H]1CCOC1=O` [Agent 3OC12-HSL, N-(3-oxododecanoyl) homoserine lactone], the “enhancement of aflibercept transport by 3OC12-HSL” value in the assay on Calu-3 cell layers [1] (aflibercept 250 μg/ml) turned out to be 18 fold; in the assay with Caco-2 cell layers (aflibercept 250 μg/ml), 11 fold. Further, the entries for the “enhancement of bevacizumab transport by 3OC12-HSL” value with Calu-3 cell layers [1] (bevacizumab 250 μg/ml) and with Caco-2 cell layers (bevacizumab 250 μg/ml) were 10 fold and 8 fold, respectively. The “enhancement of doxorubicin transport by 3OC12-HSL” value is 17 fold in the assay with Calu-3 cell layers [1] (setting [3]) and 19 fold with Caco-2 cell layers (setting [3]). Also, the “paracellular passage / flux of FD4 from apical to basolateral chamber” value in the assay with Calu-3 cell layers [2] (200 μM (3OC12-HSL: 200 μM or 1 μM)) is “increased paracellular passage of FD4”. For the same compound, the “effect on TEER compared to vehicle only” value in the assay with Calu-3 cell layers [2] (200 μM or 1 μM in 0.15% DMSO in HBSS, p<0.001) was “reduced TEER significantly”. The “time after which TEER started increasing / cell layer integrity began to recover” value with Calu-3 cell layers [2] (during exposure) was 4 h. In addition, the “TEER after 7 hours” value with Calu-3 cell layers [2] (recovery during exposure) was 520+/−20 Ω·cm^2. Moreover, the “time at which flux of FD4 peaked” value in the assay with Calu-3 cell layers [2] (then continued increasing slowly for four hours) was determined as 30 min. Also, the “MMP activation in apical samples taken at one-hour intervals” value with MMP (200 μM, p<0.01, no fluorescence in control samples) was “significant MMP activation”. Besides, the “period over which MMP activation increased before starting to reduce” value in the assay on MMP (samples taken hourly from apical chamber) came out at 4 h. For the same compound, in the assay on Calu-3 cell layer, the “delivery of siRNA (19 bases) across cell layer, recovered fraction from basolateral chamber” value was “enhanced”.
